Converted amounts (≈) assume the structure as drawn.
Experiments:
in vivo = test: in vivo
Description: Mouse maximum tolerated dose (MTD) of fabimycin
The protocol to assess fabimycin’s murine MTD when formulated in 20% sulfobutyl ether(7) β-cyclodextrin (SBE-β-CD) in H2O was approved by the Institutional Animal Care and Use Committee (IACUC) at the University of Illinois at Urbana-Champaign (protocol number: 19181). […]
from Charles River were used. Mice were randomly chosen and divided into subsequent groups. No additional randomization was used to allocate the experimental groups; blinding was not performed for subsequent quantitation.
The MTD of a single dosage of a given compound was determined before evaluating the MTD of multiple dosages. […]
weeks (single dose). The single-dose MTDs were determined first. For multiple doses, the compound was given by daily […]
highest dosage with acceptable toxicity (<20% weight loss). MTD values shown for Debio-1452-NH3 are as previously reported.3 MTD values for fabimycin when formulated in 17% Cremophor EL/3% SBE-β-CD were drawn from infection models conducted with neutropenic A. baumannii-infected mice (see below). […]
River Licensee) weighing 18 ± 2 grams were used.10 All animals were specific pathogen free. Mice were rendered neutropenic via cyclophosphamide (CP) administration by two intraperitoneal (IP) injections following a standard method for mouse thigh infection models.11 The first CP dose, 150 mg/kg, was administered at four days before infection (Day –4); and the second, 100 mg/kg, at 24 h before infection (Day –1), prior to infection on Day 0.

[1] = tested on: K. pneumoniae clinical isolates (n=100); test: MIC50/MIC90, clinical isolate panel; format: cell-based; details: Klebsiella pneumoniae; K. pneumoniae (n=100) clinical isolates
Description: Figure 4 Antimicrobial activity of fabimycin against clinical isolates. (A) The susceptibility of clinical isolates (Gram-negative species and S. aureus) to fabimycin, Debio-1452-NH3, and Debio-1452. MICs performed in biological triplicate. (B) Further exploration of the breadth of fabimycin’s antibacterial activity against diverse clinical isolate panels of K. pneumoniae and A. baumannii, as compared to levofloxacin. MICs performed in biological duplicate.
II. Materials and Methods for Biological Experiments
S. aureus ATCC 29213 and E. coli MG1655 were obtained from the American Type Culture Collection (ATCC). E. coli BW25113 and E. coli JW5503 were obtained from the Keio Collection. AR-bank strains were obtained from the Centers for Disease Control and Prevention and FDA Antibiotic Resistance Isolate Bank.
Antimicrobial susceptibility tests
Susceptibility testing was performed in biological triplicate, unless noted otherwise, using the micro-dilution broth method as outlined by the Clinical and Laboratory Standards Institute. Bacteria were cultured with cation-adjusted Mueller Hinton broth (Sigma Aldrich, catalogue number: 90922). […]
Error bars represent the standard error of the mean of three biological replicates. All compounds evaluated in biological assays were ≥95% pure.

E. coli AR-0055 = test: Urinary tract infection model; format: in vivo, mouse; details: 33.3 mg/kg IV three times a day, 168 h postinfection
Protocol: Urinary tract infection model
The protocol to assess fabimycin’s efficacy in a urinary tract infection was approved by the IACUC (protocol number:
IM011-12282020). In this study specific pathogen-free C3H/HeJ (Tlr4Lps-d) mice that were 7-8 weeks were used and provided with 5% glucose for 6 days prior to infection and for the duration of the experiment.12, 13 On day 0, mice were infected with E. coli AR-0055 (1.38 * 10^9 CFU/mouse, transurethral) while under pentobarbital anesthesia (50 mg/kg, IP). Treatment was initiated 96 hours post-infection with test articles. Fabimycin was formulated in 17% Cremophor EL/3% SBE-β-CD and administered intravenously while the control, colistin, was formulated in 0.9% NaCl and administered subcutaneously. Doses were administered once, twice, or three times daily for 3 consecutive days with animal sacrifice and burden enumeration at 168 hours post-infection. Tissues were collected and pathogen burden evaluated by dilution plating technique on nutrient agar plates.

E. coli MG1655 = test: Time-kill kinetics; format: cell-based, Escherichia coli; details: E. coli MG1655, over 8 h
Protocol: An overnight culture of E. coli MG1655 was diluted in 5 mL of MH broth to ~5.0 * 10^5 CFU/mL and incubated at 37 °C […]
while shaking for 1 hour. […]
the course of 8 hours. At each time point 100 µL of culture was collected and serially diluted in sterile PBS before plating on drug-free agar plates. Colonies were counted after incubation at 37 °C overnight and CFU/mL calculated. […]
All cells were cultured […]
at 37 °C under a 5% CO2 environment. Cell lines were authenticated by a commercial vendor and inspected visually in house. Cell lines were not tested for Mycoplasma contamination. The media was prepared by the University of Illinois School of Chemical Sciences Cell Media Facility.
H. sapiens HFF-1, A549, and HepG2 cells were seeded (3,000-6,000 cells/well) in a 96-well plate (Greiner Bio-One;

Question: With `Cc1c(CN(C)C(=O)/C=C/c2cnc3c(c2)CC[C@H](N)C(=O)N3)oc2ccccc12` [fabimycin] as the compound, how does the MTD (in vivo; BALB/c, mouse, iv) read?
Answer: 100 mg/kg

Question: And the MTD at 1 day (in vivo; BALB/c, mouse, iv)?
Answer: 75 mg/kg

Question: What about the MTD at 3 d (in vivo; BALB/c, mouse, iv) of the same compound?
Answer: 75 mg/kg

Question: What about the MTD at 2 weeks (in vivo; female, C57BL/6, mouse, ip) of the same compound?
Answer: > 200 mg/kg

Question: What about the MTD at 1 day (in vivo; female, C57BL/6, mouse, ip) of the same compound?
Answer: > 200 mg/kg

Question: And the MTD at 5 d (in vivo; female, C57BL/6, mouse, ip)?
Answer: > 100 mg/kg

Question: What about the MIC50 [1] of the same compound?
Answer: 1 µg/mL (≈ 2.47 µM)

Question: And the MIC90 [1]?
Answer: 4 µg/mL (≈ 9.89 µM)

Question: What about the “log10 reduction in bacterial load relative to the vehicle” value (E. coli AR-0055; bladder) of the same compound?
Answer: 2.8 log10

Question: What about the “log10 reduction in bacterial load relative to the vehicle” value (E. coli AR-0055; kidney) of the same compound?
Answer: 1.9 log10

Question: What about the “log10 reduction in bacterial load relative to the vehicle” value (E. coli AR-0055; liver) of the same compound?
Answer: 2.9 log10

Question: What about the “log10 reduction in bacterial load relative to the vehicle” value (E. coli AR-0055; spleen) of the same compound?
Answer: 3.0 log10

Question: What about the “rate of killing, time-kill growth curve” value (E. coli MG1655) of the same compound?
Answer: not profoundly bactericidal
